8 compounds from PubChem BioAssay AID1259407 (Chemical Carcinogenesis Research Information System (CCRIS), 2018) can be followed below.

For the data set, the system named is CCRIS mutagenicity, Ames/micronucleus/aberration tests. The data set is described as follows: CCRIS mutagenicity studies.
Where [1] appears, read: Test System: AMES SALMONELLA TYPHIMURIUM, Strain/Indicator: TA98, Metabolic Activation: NONE, Method: STANDARD PLATE.
[2] abbreviates: Test System: AMES SALMONELLA TYPHIMURIUM, Strain/Indicator: TA98, Metabolic Activation: RAT, LIVER, S-9, AROCLOR 1254, Method: STANDARD PLATE.
Where [3] appears, read: Test System: AMES SALMONELLA TYPHIMURIUM, Strain/Indicator: TA100, Metabolic Activation: NONE, Method: STANDARD PLATE.
Setting [4] is: Test System: AMES SALMONELLA TYPHIMURIUM, Strain/Indicator: TA100, Metabolic Activation: RAT, LIVER, S-9, AROCLOR 1254, Method: STANDARD PLATE.
Setting [5] is: Test System: AMES SALMONELLA TYPHIMURIUM, Strain/Indicator: TA1535, Metabolic Activation: NONE, Method: STANDARD PLATE.
Where [6] appears, read: Test System: AMES SALMONELLA TYPHIMURIUM, Strain/Indicator: TA1535, Metabolic Activation: RAT, LIVER, S-9, AROCLOR 1254, Method: STANDARD PLATE.
Setting [7] is: Test System: AMES SALMONELLA TYPHIMURIUM, Strain/Indicator: TA1537, Metabolic Activation: NONE, Method: STANDARD PLATE.
Where [8] appears, read: Test System: AMES SALMONELLA TYPHIMURIUM, Strain/Indicator: TA1537, Metabolic Activation: RAT, LIVER, S-9, AROCLOR 1254, Method: STANDARD PLATE.
[9] abbreviates: Test System: AMES SALMONELLA TYPHIMURIUM, Strain/Indicator: TA100, Metabolic Activation: NONE, Method: PREINCUBATION

Calls of active or inactive are those of the source. No rule for the calls is given here.

On to `CCN(CC)c1ccc(N=Nc2c(Cl)cc([N+](=O)[O-])cc2Cl)cc1`, for which the mutagenic call runs as follows: under setting [1], “active; positive”; under setting [2], “active; positive”; under setting [3], “inactive; negative”; under setting [4], “inactive; negative”; under setting [5], “inactive; negative”; under setting [6], “inactive; negative”. Besides, the mutagenic call reads like this: under setting [7], “inactive; negative”; under setting [8], “inactive; negative”; (Test System: CHINESE HAMSTER OVARY, Strain/Indicator: CHO (HGPRT)/6-THIOGUANINE, Metabolic Activation: NONE) “inactive; negative”; (Test System: CHINESE HAMSTER OVARY, Strain/Indicator: CHO (HGPRT)/6-THIOGUANINE, Metabolic Activation: RAT, LIVER, S-9, AROCLOR 1254) “inactive; negative”; (Test System: UDS RAT HEPATOCYTES, Strain/Indicator: THY INCORP, Metabolic Activation: NONE, Method: AUTORADIOGRAPHY) “inactive; negative”.

Turning to `NN1C(=O)c2ccccc2C1=O`, the mutagenic call is “inactive; negative” (Test System: AMES SALMONELLA TYPHIMURIUM, Strain/Indicator: TA97A, Metabolic Activation: NONE, Method: STANDARD PLATE); “inactive; negative” (Test System: AMES SALMONELLA TYPHIMURIUM, Strain/Indicator: TA97A, Metabolic Activation: RAT, LIVER, S-9, AROCLOR 1254, Method: STANDARD PLATE); “inactive; negative” under setting [3]; “inactive; negative” under setting [4]; “inactive; negative” (Test System: AMES SALMONELLA TYPHIMURIUM, Strain/Indicator: TA102, Metabolic Activation: NONE, Method: STANDARD PLATE); “inactive; negative” (Test System: AMES SALMONELLA TYPHIMURIUM, Strain/Indicator: TA102, Metabolic Activation: RAT, LIVER, S-9, AROCLOR 1254, Method: STANDARD PLATE). Also, the mutagenic call reads like this: (Test System: AMES SALMONELLA TYPHIMURIUM, Strain/Indicator: TA104, Metabolic Activation: NONE, Method: STANDARD PLATE) “inactive; negative”; (Test System: AMES SALMONELLA TYPHIMURIUM, Strain/Indicator: TA104, Metabolic Activation: RAT, LIVER, S-9, AROCLOR 1254, Method: STANDARD PLATE) “inactive; negative”.

Turning to `Oc1ccc2[nH]ccc2c1`, the mutagenic call under setting [9] is “inactive; negative”.

Regarding `O=[N+]([O-])c1cc(C(F)(F)F)cc([N+](=O)[O-])c1O`, the mutagenic call reads like this: under setting [1], “inactive; negative”; under setting [2], “inactive; negative”; under setting [3], “inactive; negative”; under setting [4], “inactive; negative”; under setting [5], “inactive; negative”; under setting [6], “inactive; negative”. Besides, the mutagenic call is, setting by setting: under setting [7], “inactive; negative”; under setting [8], “inactive; negative”; (Test System: AMES SALMONELLA TYPHIMURIUM, Strain/Indicator: TA1538, Metabolic Activation: NONE, Method: STANDARD PLATE) “inactive; negative”; (Test System: AMES SALMONELLA TYPHIMURIUM, Strain/Indicator: TA1538, Metabolic Activation: RAT, LIVER, S-9, AROCLOR 1254, Method: STANDARD PLATE) “inactive; negative”.

As to `c1ccc(N=Nc2ccccc2)cc1`, the mutagenic call is “inactive; negative” under setting [9]; “active; positive” (Test System: AMES SALMONELLA TYPHIMURIUM, Strain/Indicator: TA100, Metabolic Activation: RAT, LIVER, MICROSOMES, AROCLOR 1254, Method: PREINCUBATION); “inactive; negative” (Test System: AMES SALMONELLA TYPHIMURIUM, Strain/Indicator: TA100, Metabolic Activation: RAT, LIVER, MICROSOMES, AZOBENZENE, Method: PREINCUBATION); “inactive; negative” (Test System: AMES SALMONELLA TYPHIMURIUM, Strain/Indicator: TA100, Metabolic Activation: RAT, LIVER, MICROSOMES, Method: PREINCUBATION); “active; positive” under setting [4]; “active; positive” (Test System: AMES SALMONELLA TYPHIMURIUM, Strain/Indicator: TA100, Metabolic Activation: RAT, LIVER, S-9, POLYCHLORINATED BIPHENYLS, Method: PREINCUBATION).

As for `Cc1cnc2c(C)cc3c(nc(N)n3C)c2n1`, the mutagenic call under setting [2] is “active; positive”.

On to `C/[N+]([O-])=N/CO`, for which the mutagenic call was “active; positive” (Test System: AMES SALMONELLA TYPHIMURIUM, Strain/Indicator: G46, Metabolic Activation: NONE, Method: STANDARD PLATE); “active; positive” (Test System: AMES SALMONELLA TYPHIMURIUM, Strain/Indicator: TA100, Metabolic Activation: RAT, LIVER, S-9, KC500 OR PHENOBARBITAL, Method: LIQUID SUSPENSION); “active; positive” (Test System: AMES SALMONELLA TYPHIMURIUM, Strain/Indicator: TA1535, Metabolic Activation: RAT, LIVER, S-9, KC500 OR PHENOBARBITAL, Method: LIQUID SUSPENSION); “active; positive” (Test System: CHINESE HAMSTER V-79, Strain/Indicator: V-79/OUABAIN, Metabolic Activation: NONE, Method: STANDARD PLATE).

Turning to `CCOc1ccc(N=O)cc1`, the mutagenic call by setting is: under setting [1], “active; positive”; under setting [2], “active; positive”; (Test System: AMES SALMONELLA TYPHIMURIUM, Strain/Indicator: TA100(NR), Metabolic Activation: NONE, Method: PREINCUBATION) “active; positive”; (Test System: AMES SALMONELLA TYPHIMURIUM, Strain/Indicator: TA100(NR), Metabolic Activation: NONE, Method: STANDARD PLATE) “active; positive”; (Test System: AMES SALMONELLA TYPHIMURIUM, Strain/Indicator: TA100(NR), Metabolic Activation: RAT, LIVER, S-9, AROCLOR 1254, Method: PREINCUBATION) “active; positive”; (Test System: AMES SALMONELLA TYPHIMURIUM, Strain/Indicator: TA100(NR), Metabolic Activation: RAT, LIVER, S-9, AROCLOR 1254, Method: STANDARD PLATE) “active; positive”. For the same compound, the mutagenic call reads like this: (Test System: AMES SALMONELLA TYPHIMURIUM, Strain/Indicator: TA100, Metabolic Activation: HAMSTER, LIVER, S-9, KANECHLOR 400, Method: PREINCUBATION) “active; positive”; under setting [9], “active; positive”; under setting [3], “active; positive”; (Test System: AMES SALMONELLA TYPHIMURIUM, Strain/Indicator: TA100, Metabolic Activation: RAT, LIVER, S-9, AROCLOR 1254, Method: PREINCUBATION) “active; positive”; under setting [4], “active; positive”; (Test System: AMES SALMONELLA TYPHIMURIUM, Strain/Indicator: TA100TN5-1,8-DNP1011, Metabolic Activation: NONE, Method: PREINCUBATION) “active; positive”. Moreover, the mutagenic call (Test System: AMES SALMONELLA TYPHIMURIUM, Strain/Indicator: TA100TN5-1,8-DNP1011, Metabolic Activation: NONE, Method: STANDARD PLATE) is “active; positive”; the mutagenic call (Test System: AMES SALMONELLA TYPHIMURIUM, Strain/Indicator: TA100TN5-1,8-DNP1011, Metabolic Activation: RAT, LIVER, S-9, AROCLOR 1254, Method: PREINCUBATION) is “active; positive”; the mutagenic call (Test System: AMES SALMONELLA TYPHIMURIUM, Strain/Indicator: TA100TN5-1,8-DNP1011, Metabolic Activation: RAT, LIVER, S-9, AROCLOR 1254, Method: STANDARD PLATE) is “active; positive”; the mutagenic call (Test System: AMES SALMONELLA TYPHIMURIUM, Strain/Indicator: TA100TN5-1,8-DNP1012, Metabolic Activation: NONE, Method: PREINCUBATION) was “active; positive”; the mutagenic call (Test System: AMES SALMONELLA TYPHIMURIUM, Strain/Indicator: TA100TN5-1,8-DNP1012, Metabolic Activation: NONE, Method: STANDARD PLATE) was “active; positive”; the mutagenic call (Test System: AMES SALMONELLA TYPHIMURIUM, Strain/Indicator: TA100TN5-1,8-DNP1012, Metabolic Activation: RAT, LIVER, S-9, AROCLOR 1254, Method: PREINCUBATION) was “active; positive”. Also, the mutagenic call (Test System: AMES SALMONELLA TYPHIMURIUM, Strain/Indicator: TA100TN5-1,8-DNP1012, Metabolic Activation: RAT, LIVER, S-9, AROCLOR 1254, Method: STANDARD PLATE) was “active; positive”.
